Measurements from patent US11999727B2 (Tango Therapeutics, Inc., priority 2020, dated 2024).

What was measured:
[1] = tested on: HAP1 MTAP-intact cell line; assay: SDMA in-cell western assay, HAP1 MTAP-intact; assay type: cell-based; conditions: Homo sapiens, HAP1, SDMA in-cell western, HAP1 MTAP-intact; read-out: MTAP HAP1 intact IC50
Summary of the method: (§1)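 Isogenic HAP1 pair: the MTAP-intact line expresses endogenous MTAP, and the deleted line is MTAP-null. Symmetric dimethylarginine was detected by in-cell western and IC50 values derived for each line.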

PRMT5 [2] = target: T1, PRMT5 (Homo sapiens, UniProt O14744); assay: PRMT5 biochemical IC50 assay with SAM as cofactor; conditions: PRMT5, SAM as cofactor; read-out: SAM IC50
T1 construct: purchased Viva (custom protein)

PRMT5 [3] = target: T1, PRMT5; assay: PRMT5 biochemical IC50 assay with no cofactor; conditions: PRMT5, no cofactor; read-out: No Cofactor/rel IC50
Source text: Table 1 indicates IC50 values (μM) against PRMT5 for exemplary compounds in the presence of SAM as cofactor, with no cofactor, and with MTA as cofactor, respectively (columns 4-6). […] Ki values can be calculated from the IC50 values as described in the Examples section. As detailed in the Examples section, for the assay performed in the presence of SAM, IC50=Ki×1.5 (Ki=IC50/1.5).

PRMT5 [4] = target: T1, PRMT5; assay: PRMT5 biochemical IC50 assay with MTA as cofactor; conditions: PRMT5, MTA as cofactor; read-out: MTA IC50
[5] = tested on: HAP1 MTAP-deleted cell line; assay: Viability assay, MTAP-deleted cell line; assay type: cell-based; conditions: Homo sapiens, read-out: HAP1 MTAP deleted viability
Source text: Table 1 additionally indicates IC50 values in a viability assay for the MTAP-deleted cell line (column 10), indicating the effect of treatment with compound on cell survival.

[6] = tested on: HAP1 MTAP-deleted cell line; assay: SDMA in-cell western assay, HAP1 MTAP-deleted; assay type: cell-based; conditions: for IC50: Homo sapiens, HAP1, SDMA in-cell western, HAP1 MTAP-deleted; for MTAP intact/deleted ratio: IC50 ratio HAP1 MTAP-intact / HAP1 MTAP-deleted, SDMA in-cell western
Summary of the method: as §1

[7] = HAP1, viability IC50, MTAP-deleted cell line
[8] = read-out: HAP 1 MTAP deleted IC50
[9] = HAP1, viability assay, HAP1 MTAP-deleted
[10] = read-out: HAP1 MTAP deleted IC50

T1 sequence (O14744 whole entry): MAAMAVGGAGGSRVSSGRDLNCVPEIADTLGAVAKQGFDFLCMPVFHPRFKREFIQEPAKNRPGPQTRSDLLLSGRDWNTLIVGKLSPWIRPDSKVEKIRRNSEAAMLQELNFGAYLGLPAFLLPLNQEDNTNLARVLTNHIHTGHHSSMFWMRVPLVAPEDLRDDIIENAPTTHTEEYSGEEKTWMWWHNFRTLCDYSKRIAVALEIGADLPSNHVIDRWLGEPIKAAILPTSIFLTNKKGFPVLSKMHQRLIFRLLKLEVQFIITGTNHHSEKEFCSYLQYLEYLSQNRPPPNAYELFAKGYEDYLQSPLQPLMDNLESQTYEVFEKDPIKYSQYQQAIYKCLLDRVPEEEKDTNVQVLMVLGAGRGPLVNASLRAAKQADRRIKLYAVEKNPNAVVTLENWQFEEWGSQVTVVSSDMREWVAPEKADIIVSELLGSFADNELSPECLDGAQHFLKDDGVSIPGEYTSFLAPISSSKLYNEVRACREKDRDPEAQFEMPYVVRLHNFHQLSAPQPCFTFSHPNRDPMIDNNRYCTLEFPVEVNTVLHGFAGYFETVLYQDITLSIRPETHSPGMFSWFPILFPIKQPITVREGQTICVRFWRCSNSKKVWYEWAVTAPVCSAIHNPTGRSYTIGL
T1 sequence (Q9BQA1 whole entry partner): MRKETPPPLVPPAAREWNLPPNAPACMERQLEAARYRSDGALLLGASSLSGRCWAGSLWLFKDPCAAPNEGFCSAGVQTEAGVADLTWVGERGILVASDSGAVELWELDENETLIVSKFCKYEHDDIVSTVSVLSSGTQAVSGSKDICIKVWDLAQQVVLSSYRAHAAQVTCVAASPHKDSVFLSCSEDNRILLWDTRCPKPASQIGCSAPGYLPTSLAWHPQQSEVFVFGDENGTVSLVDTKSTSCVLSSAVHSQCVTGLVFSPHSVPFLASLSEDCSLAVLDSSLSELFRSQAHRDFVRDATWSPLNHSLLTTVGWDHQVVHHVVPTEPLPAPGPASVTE

Row | IC50 [1] [nM] | IC50 (PRMT5 [2]) [nM] | IC50 (PRMT5 [3]) [nM] | IC50 (PRMT5 [4]) [nM] | IC50 [6, 8] [nM] | IC50 [6, 10] [nM] | Compound | IC50 [5, 7] [nM] | MTAP intact/deleted ratio [6] | IC50 [5, 9] [nM]
1 | > 1000 | 50 to 500 | 50 to 500 | < 50 | 100 to 1000 |  | Cc1cc(NC(=O)C(=O)N2C[C@H](C)CC[C@H]2c2cccc3[nH]ncc23)cnc1N (racemic) [Compound 690, rac-N-(6-amino-5-methyl-3-pyridyl)-2-[(2S,5R)-2-(1H-indazol-4-yl)-5-methyl-1-piperidyl]-2-oxo-acetamide] | 1000 to 10000 | A (an IC50 ratio greater than or equal to 10 fold) | 
2 | > 1000 | 50 to 500 | 50 to 500 | < 50 | 100 to 1000 |  | CNS(=O)(=O)c1cccc([C@@H]2CC[C@@H](C)CN2C(=O)C(=O)Nc2cnc(N)c(C)c2)c1 (racemic) [Compound 691, N-(6-amino-5-methyl-3-pyridyl)-2-[(2S,5R)-5-methyl-2-[3-(methylsulfamoyl)phenyl]-1-piperidyl]-2-oxo-acetamide] | 1000 to 10000 | A (an IC50 ratio greater than or equal to 10 fold) | 
3 | > 1000 | > 500 | > 500 | 50 to 500 | > 1000 |  | Cc1cc(NC(=O)C(=O)N2C[C@H](C)CC[C@H]2C2CC3(CCC3)C2)cnc1N (racemic) [Compound 692, N-(6-amino-5-methylpyridin-3-yl)-2-(5-methyl-2-(spiro[3.3]heptan-2-yl)piperidin-1-yl)-2-oxoacetamide] | > 10000 | C (an IC50 ratio of less than 3 fold) | 
4 | > 1000 | 50 to 500 | < 50 | < 50 |  | < 100 | CCc1cc(NC(=O)C(=O)N2C[C@@H](C)CC[C@@H]2c2ccc(F)cc2)cnc1N (racemic) [Compound 710, N-(6-amino-5-ethylpyridin-3-yl)-2-(2-(4-fluorophenyl)-5-methylpiperidin-1-yl)-2-oxoacetamide] |  | A (an IC50 ratio greater than or equal to 10 fold) | < 1000
5 | > 1000 | > 500 | > 500 | 50 to 500 |  | > 1000 | [H][C@@]1([C@]2([H])C[C@@]3(C[C@H](O)C3)C2)CC[C@@H](C)CN1C(=O)C(=O)Nc1cnc(N)c(C)c1 (mixture of isomers) [Compound 711] |  | B (an IC50 ratio greater than or equal to 3 fold but lower than 10 fold) | > 10000
6 | > 1000 | 50 to 500 | 50 to 500 | < 50 |  | 100 to 1000 | Cc1cc(NC(=O)C(=O)N2C[C@H](C)CC[C@H]2c2cccc3c2CC(=O)N3)cnc1N (racemic) [Compound 714, N-(6-Amino-5-methyl-3-pyridyl)-2-[(2S,5R)-5-methyl-2-(2-oxoindolin-4-yl)-1-piperidyl]-2-oxo-acetamide] |  | A (an IC50 ratio greater than or equal to 10 fold) | 1000 to 10000
7 | > 1000 | > 500 | 50 to 500 | 50 to 500 |  | < 100 | Cc1cc(NC(=O)C(=O)N2C[C@H](C)CC[C@H]2c2ccn(-c3ccn[nH]3)n2)cnc1N (racemic) [Compound 715, 2-(2-(1′H-[1,3′-bipyrazol]-3-yl)-5-methylpiperidin-1-yl)-N-(6-amino-5-methylpyridin-3-yl)-2-oxoacetamide] |  | A (an IC50 ratio greater than or equal to 10 fold) | 1000 to 10000
8 | > 1000 | 50 to 500 | 50 to 500 | < 50 |  | < 100 | Cc1cc(NC(=O)C(=O)N2C[C@H](C)CC[C@H]2c2ccc3ncsc3c2)cnc1N (racemic) [Compound 716, N-(6-amino-5-methyl-3-pyridyl)-2-[(2S,5R)-2-(1,3-benzothiazol-6-yl)-5-methyl-1-piperidyl]-2-oxo-acetamide] |  | A (an IC50 ratio greater than or equal to 10 fold) | < 1000
9 | > 1000 | > 500 | 50 to 500 | 50 to 500 |  | > 1000 | CC(=O)N1CCC([C@@H]2CC[C@@H](C)CN2C(=O)C(=O)Nc2cnc(N)c(C)c2)CC1 (racemic) [Compound 737, 2-[(2R,5S)-2-(1-acetyl-4-piperidyl)-5-methyl-1-piperidyl]-N-(6-amino-5-methyl-3-pyridyl)-2-oxo-acetamide] |  | B (an IC50 ratio greater than or equal to 3 fold but lower than 10 fold) | > 10000
10 | > 1000 | 50 to 500 | 50 to 500 | 50 to 500 |  | > 1000 | CCOc1ncc(NC(=O)C(=O)N2C[C@@H](C)CC[C@@H]2c2ccccc2)cc1C(N)=O (racemic) [Compound 738] |  | B (an IC50 ratio greater than or equal to 3 fold but lower than 10 fold) | > 10000
11 | 100 to 1000 | 50 to 500 | 50 to 500 | 50 to 500 |  | < 100 | Cc1cc(NC(=O)C(=O)N2C[C@H](C)CC[C@H]2c2cc3[nH]ncc3s2)cnc1N (racemic) [Compound 743, N-(6-amino-5-methylpyridin-3-yl)-2-(5-methyl-2-(1H-thieno[3,2-c]pyrazol-5-yl)piperidin-1-yl)-2-oxoacetamide] |  | A (an IC50 ratio greater than or equal to 10 fold) | < 1000
12 | > 1000 | > 500 | > 500 | 50 to 500 |  | > 1000 | Cc1cc(NC(=O)C(=O)N2C[C@H](C)CC[C@H]2C2CCCNC2)cnc1N (mixture of isomers) [Compound 744, N-(6-amino-5-methyl-3-pyridyl)-2-[(2R,5S)-5-methyl-2-(3-piperidyl)-1-piperidyl]-2-oxo-acetamide] |  | C (an IC50 ratio of less than 3 fold) | > 10000
13 | > 1000 | > 500 | > 500 | 50 to 500 |  | > 1000 | CC(=O)N[C@H]1CCN(C(=O)C(=O)Nc2cncc(C(N)=O)c2)[C@@H](c2ccccc2)C1 (racemic) [Compound 745, 5-[[2-[(2R,4S)-4-acetamido-2-phenyl-1-piperidyl]-2-oxo-acetyl]amino]pyridine-3-carboxamide] |  | C (an IC50 ratio of less than 3 fold) | > 10000
14 | > 1000 | 50 to 500 | 50 to 500 | 50 to 500 |  | > 1000 | CCc1ncc(NC(=O)C(=O)N2C[C@@H](C)CC[C@@H]2c2ccccc2)cc1C(N)=O (racemic) [Compound 747, 2-Ethyl-5-[[2-[(2S,5R)-5-methyl-2-phenyl-1-piperidyl]-2-oxo-acetyl]amino]pyridine-3-carboxamide] |  | B (an IC50 ratio greater than or equal to 3 fold but lower than 10 fold) | > 10000
15 | > 1000 | 50 to 500 | 50 to 500 | 50 to 500 |  | 100 to 1000 | CC(=O)N1CCCC([C@@H]2CC[C@@H](C)CN2C(=O)C(=O)Nc2cnc(N)c(C)c2)C1 (mixture of isomers) [Compound 757, rac-2-[(2R,5S)-2-(1-acetyl-3-piperidyl)-5-methyl-1-piperidyl]-N-(6-amino-5-methyl-3-pyridyl)-2-oxo-acetamide] |  | B (an IC50 ratio greater than or equal to 3 fold but lower than 10 fold) | > 10000
16 | > 1000 | 50 to 500 | 50 to 500 | < 50 |  | 100 to 1000 | COc1ncc(NC(=O)C(=O)N2C[C@@H](C)CC[C@@H]2c2ccc3c(c2)C(=O)NC3)cc1C(N)=O (racemic) [Compound 759, 2-methoxy-5-[[2-[(2S,5R)-5-methyl-2-(3-oxoisoindolin-5-yl)-1-piperidyl]-2-oxo-acetyl]amino]pyridine-3-carboxamide] |  | A (an IC50 ratio greater than or equal to 10 fold) | 1000 to 10000
17 | > 1000 | 50 to 500 | 50 to 500 | 50 to 500 |  | 100 to 1000 | Cc1cc(NC(=O)C(=O)N2C[C@H](C)CC[C@H]2C2CC3(CC(N)C3)C2)cnc1N (mixture of isomers) [Compound 773, N-(6-amino-5-methylpyridin-3-yl)-2-(2-(6-aminospiro[3.3]heptan-2-yl)-5-methylpiperidin-1-yl)-2-oxoacetamide] |  | B (an IC50 ratio greater than or equal to 3 fold but lower than 10 fold) | 1000 to 10000
